Laboratory results reported in PubChem BioAssay (NCI).
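GI50: concentration for 50% inhibition of growth. TGI: concentration producing complete growth inhibition.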

How the values were obtained:
Test in all cases: NCI tumour cell line growth inhibition, 384-well format
[1] = system: NCI/ADR-RES ovarian
[2] = system: MDA-MB-231 breast
[3] = system: SF-268 CNS
[4] = system: SK-OV-3 ovarian
[5] = system: A498 renal
[6] = system: BT-549 breast
[7] = system: M14 melanoma
[8] = system: COLO 205 colon
[9] = system: SN12C renal
[10] = system: HCC-2998 colon
[11] = system: OVCAR-4 ovarian
[12] = system: MCF7 breast
[13] = system: K-562 leukemia
[14] = system: IGROV1 ovarian
[15] = system: MDA-MB-468 breast
[16] = system: ACHN renal
[17] = system: MALME-3M melanoma
[18] = system: EKVX NSCLC
[19] = system: MDA-MB-435 melanoma
[20] = system: HS 578T breast
[21] = system: T-47D breast
[22] = system: 786-0 renal
[23] = system: MOLT-4 leukemia
[24] = system: RXF 393 renal
[25] = system: A549 NSCLC
[26] = system: NCI-H322M lung
[27] = system: LOX IMVI melanoma
[28] = system: HOP-62 NSCLC
[29] = system: CAKI-1 renal
[30] = system: HOP-92 NSCLC
[31] = system: HCT-116 colon
[32] = system: SK-MEL-2 melanoma
[33] = system: SR leukemia
[34] = system: UACC-62 melanoma
[35] = system: UACC-257 melanoma
[36] = system: TK-10 renal
[37] = system: CCRF-CEM leukemia
[38] = system: SW-620 colon
[39] = system: OVCAR-3 ovarian
[40] = system: OVCAR-5 ovarian
[41] = system: NCI-H23 lung
[42] = system: SK-MEL-28 melanoma
[43] = system: OVCAR-8 ovarian
[44] = system: DU-145 prostate
[45] = system: SNB-75 CNS
[46] = system: PC-3 prostate
[47] = system: SF-539 CNS
[48] = system: NCI-H226 lung
[49] = system: HT29 colon
[50] = system: SNB-19 CNS
[51] = system: U251 glioblastoma
[52] = system: UO-31 renal
[53] = system: NCI-H522 lung
[54] = system: NCI-H460 NSCLC
[55] = system: SF-295 CNS
[56] = system: HL-60(TB) leukemia
[57] = system: HCT-15 colon
[58] = system: SK-MEL-5 melanoma
[59] = system: KM12 colon

For O=C(Nc1ccc(O)c(NS(=O)(=O)c2ccc(F)cc2)c1)c1ccc(-c2ccccc2)cc1, the GI50 [1] was 5.28 µM, the TGI [1] was 17.5 µM and the GI50 [2] was 3.36 µM. For the same molecule, the TGI [2] was 13.5 µM, the GI50 [3] was 4.51 µM and the TGI [3] was 15.2 µM. The GI50 [4] was 6.15 µM, the TGI [4] was 18.4 µM and the GI50 [5] was 3.57 µM. It also gave a TGI [5] of 15.1 µM, a GI50 [6] of 4.01 µM and a TGI [6] of 13.1 µM. For the same molecule, the GI50 [7] was 6.4 µM, the TGI [7] was 19 µM and the GI50 [8] was 11.5 µM. It also gave a TGI [8] of 24 µM, a GI50 [9] of 7.38 µM and a TGI [9] of 19.7 µM. For the same molecule, the GI50 [10] was 4.56 µM, the TGI [10] was 10.3 µM and the GI50 [11] was 3.24 µM. The TGI [11] was 14.5 µM, the GI50 [12] was 3.87 µM and the TGI [12] was 15.4 µM. It also gave a GI50 [13] of 3.68 µM, a TGI [13] of 13.5 µM and a GI50 [14] of 3.62 µM. For the same molecule, the TGI [14] was 12.2 µM, the GI50 [15] was 2.08 µM and the TGI [15] was 7.66 µM. The GI50 [16] was 6.99 µM, the TGI [16] was 19.7 µM and the GI50 [17] was 4.06 µM. For the same molecule, the TGI [17] was 15.4 µM, the GI50 [18] was 4.13 µM and the TGI [18] was 14 µM. It also gave a GI50 [19] of 7.4 µM, a TGI [19] of 20.2 µM and a GI50 [20] of 2.93 µM. The TGI [20] was 15.5 µM, the GI50 [21] was 8 µM and the TGI [21] was 20.7 µM. For the same molecule, the GI50 [22] was 3.74 µM, the TGI [22] was 12.6 µM and the GI50 [23] was 1.69 µM. For the same molecule, the TGI [23] was 3.12 µM, the GI50 [24] was 1.68 µM and the TGI [24] was 4.57 µM. It also gave a GI50 [25] of 5.05 µM, a TGI [25] of 17 µM and a GI50 [26] of 4.58 µM. The TGI [26] was 16.6 µM, the GI50 [27] was 3.87 µM and the TGI [27] was 15 µM. It also gave a GI50 [28] of 9.69 µM, a TGI [28] of 21.4 µM and a GI50 [29] of 5.16 µM. For the same molecule, the TGI [29] was 17.7 µM, the GI50 [30] was 4.12 µM and the TGI [30] was 14.4 µM. It also gave a GI50 [31] of 3.71 µM, a TGI [31] of 12.7 µM and a GI50 [32] of 10.4 µM. For the same molecule, the TGI [32] was 22.2 µM, the GI50 [33] was 1.65 µM and the TGI [33] was 3.17 µM. For the same molecule, the GI50 [34] was 4.96 µM, the TGI [34] was 17.6 µM and the GI50 [35] was 7.05 µM. The TGI [35] was 19.8 µM, the GI50 [36] was 3.61 µM and the TGI [36] was 11.8 µM. The GI50 [37] was 2.24 µM, the TGI [37] was 4.11 µM and the GI50 [38] was 10.2 µM. The TGI [38] was 22 µM, the GI50 [39] was 2.86 µM and the TGI [39] was 10.6 µM. It also gave a GI50 [40] of 10.2 µM, a TGI [40] of 21.9 µM and a GI50 [41] of 6.12 µM. It also gave a TGI [41] of 18.6 µM, a GI50 [42] of 11.4 µM and a TGI [42] of 23.8 µM. It also gave a GI50 [43] of 3.73 µM, a TGI [43] of 14.1 µM and a GI50 [44] of 10.1 µM. It also gave a TGI [44] of 21.8 µM, a GI50 [45] of 9.53 µM and a TGI [45] of 21.2 µM. The GI50 [46] was 3.94 µM, the TGI [46] was 14.4 µM and the GI50 [47] was 5.63 µM. It also gave a TGI [47] of 18.4 µM, a GI50 [48] of 8.98 µM and a TGI [48] of 21.1 µM. The GI50 [49] was 12 µM, the TGI [49] was 24.5 µM and the GI50 [50] was 7.07 µM. It also gave a TGI [50] of 19.3 µM, a GI50 [51] of 5.41 µM and a TGI [51] of 17.1 µM. For the same molecule, the GI50 [52] was 5.25 µM, the TGI [52] was 16.9 µM and the GI50 [53] was 2.3 µM. For the same molecule, the TGI [53] was 6.5 µM, the GI50 [54] was 2.9 µM and the TGI [54] was 10.3 µM. The GI50 [55] was 10.5 µM, the TGI [55] was 22.4 µM and the GI50 [56] was 1.55 µM. The TGI [56] was 2.91 µM, the GI50 [57] was 3.84 µM and the TGI [57] was 11.8 µM. For the same molecule, the GI50 [58] was 4.13 µM, the TGI [58] was 15.3 µM and the GI50 [59] was 5.26 µM. For the same molecule, the TGI [59] was 18.3 µM.
